Measured values: US6797721B2, “Phorboxazole derivatives for treating cancer” (Parker Hughes Institute, priority 1999, dated 2004)

Experiments:
[1] = tested on: NALM-6 human B-lineage acute lymphoblastic leukemia cells; experiment: MTT cytotoxicity assay, NALM-6; format: cell-based; conditions: NALM-6 (leukemia, ALL), 24-36 hours, read-out: IC50 [MTT]
Experimental: (§1) The cytotoxicity assay of synthetic Phorboxazole A and various derivative compounds against human tumor cells was performed using the MTT (3-[4,5-dimethylthiazol-2-yl]-2,5-diphenyl tetrazolium bromide) assay (Boehringer Mannheim Corp., Indianapolis, Ind.). Briefly, exponentially growing brain tumor cells were seeded into a 96-well plate at a density of 2.5×10^4 cells/well and incubated for 36 hours at 37° C. prior to drug exposure. On the day of treatment, culture medium was carefully aspirated from the wells and replaced with fresh medium containing the various phorboxazole A derivative compounds as well as the tyrosine kinase inhibitory isoflavone genistein (GEN) at concentrations ranging from 0.1 to 250 μM. Triplicate wells were used for each treatment.
(§2) Human glioblastoma cells U373 (brain cancer), human B-lineage acute lymphoblastic leukemia cells NALM-6, and human breast cancer cells BT-20 were obtained from American Type Culture Collection (Rockville, Md.) and maintained as a continuous cell line in Dulbecco's modified Eagles's medium supplemented with 10% fetal bovine serum and antibiotics.
(§3) The cells were incubated with the various compounds for 24-36 hours at 37° C. in a humidified 5% CO2 atmosphere. To each well, 10 μl of MTT (0.5 mg/ml final concentration) was added and the plates were incubated at 37° C. for 4 hours to allow MTT to form formazan crystals by reacting with metabolically active cells. The fonnazan crystals were solubilized overnight at 37° C. in a solution containing 10% SDS in 0.01 M HCl. The absorbance of each well was measured in a microplate reader (Labsystems) at 540 nm and a reference wavelength of 690 nm. To translate the OD540 values into the number of live cells in each well, the OD540 values were compared to those on standard OD540-versus-cell number curves generated for each cell line. The percent survival was calculated using the formula: [formula]
(§4) The IC50 values were calculated by non-linear regression analysis.

[2] = tested on: BT-20 human breast cancer cells; experiment: MTT cytotoxicity assay, BT-20; format: cell-based; conditions: BT-20 (breast cancer), 24-36 hours, read-out: IC50 [MTT]
Experimental: as §1, §2, §3, §4

[3] = tested on: U373 human glioblastoma cells; experiment: MTT cytotoxicity assay, U373; format: cell-based; conditions: U373 MG, U373 (brain tumor, glioblastoma), 24-36 hours, read-out: IC50 [MTT]
Experimental: as §1, §2, §3, §4

[4] = tested on: NALM-6 B-lineage ALL cells; experiment: Clonogenic assay, NALM-6; format: cell-based, human; conditions: 7 days; for inhibition at 0.001 µM / inhibition at 0.01 µM / inhibition at 0.1 µM: Homo sapiens, 168 h, read-out: Inhibition of clonogenic growth
Experimental: (§5) The growth-inhibiting activity of the synthetic Phorboxazole A and the synthesized derivatives was tested in clonogenic assays. Cancer cells were treated with 1 nM, 10 nM, and 100 nM doses of synthetic Phorboxazole A or derivatives of phorboxazole A. Treated cells included U373 human glioblastoma cells, NALM-6, human B-lineage acute lymphoblastic leukemia cells, and BT-20 human breast cancer cells. The cancer cells were resuspended in clonogenic medium consisting of alpha-MEM supplemented with 0.9% methylcellulose, 30% fetal bovine serum, and 50 μM 2-mercaptoethanol. Cells were plated in duplicate Petri dishes at 100,000 cells/mL/dish and cultured in a humidified 5% CO2 incubator for 7 days. Cancer cell colonies were enumerated on a grid using an inverted phase microscope of high optical resolution. Results were expressed as % inhibition of clonogenic cells at a particular concentration of the test agent using the formula:
(§6) % Inhibition=(1−Mean # of colonies [Test]/Mean # of colonies [Control]×100.

[5] = tested on: BT-20 human breast cancer cells; experiment: Clonogenic assay, BT-20; format: cell-based; conditions: 7 days; for inhibition at 0.001 µM / inhibition at 0.01 µM / inhibition at 0.1 µM: Homo sapiens, 168 h, read-out: Inhibition of clonogenic growth
Experimental: as §5, §6

[6] = tested on: U373 human glioblastoma cells; experiment: Clonogenic assay, U373; format: cell-based; conditions: 7 days; for inhibition at 0.01 µM / inhibition at 0.1 µM: Homo sapiens, U373 MG, 168 h, read-out: Inhibition of clonogenic growth
Experimental: as §5, §6

[7] = tested on: human breast cancer cell line BT-20; experiment: In situ detection of apoptosis (nick-end-labeling, confocal microscopy); format: cell-based; conditions: final concentration of 100 μM, 24 hours
Experimental: The synthetic Phorboxazole A and the synthetic analogs were also assayed for apoptosis-inducing activity. Assay for apoptosis was performed by the in situ nick-end-labeling method using an ApopTag in situ detection kit (Oncor, Gaithersburg, Md.) according to the manufacturer's reconmmendations. Immunofluorescence was used to examine the morphologic features of human breast cancer cell line BT-20 (American Type Culture Collection Rockville, Md.) treated with the novel phorboxazole A derivatives of the present invention.
Cells were trypsinized from rapidly growing tissue culture flasks and seeded onto sterile 22 mm^2 coverslips in 6-well culture plates. Cells on coverslips were returned to the incubator for 24 hours prior to treatment. The phorboxazole A derivatives were added to the cells from a stock solution made in DMSO to a final concentration of 100 μM. Final DMSO concentration were kept at 0.1% in both test samples and controls. Cells were returned to a 37° C. incubation for 24 hours before further processing. At 24 hours, coverslips were fixed in −20° C. methanol for 15 minutes followed by a 15 minute incubation in phosphate buffered saline +0.1% Triton X-100 (PBS-Tx). Coverslips were then incubated with a monoclonal antibody against α-tubulin (Sigma Chemical Co., St. Louis, Mo.) at a dilution of 1:1000 for 40 minutes in a humidified chamber at 37° C. Coverslips were washed for 15 minutes in PBS-Tx followed by a 40 minute incubation with goat anti-mouse IgG antibody conjugated to FITC (Amersham Corp., Arlington Heights, Ill.). The coverslips were again rinsed in PBS-Tx and incubated with 5 μM TOTO-3 (Molecular Probes, Eugene, Oreg.) for 20 minutes to label the nuclear DNA. Coverslips were immediately inverted onto slides in Vectashield (Vector Labs, Burlingame) to prevent photobleaching, sealed with nail varnish and stored at 4° C.
Slides were examined using a Bio-Rad MRC-1024 Laser Scanning Confocal Microscope mounted on a Nikon Eclipse E800 upright microscope with high numerical aperture objectives. […]

leukemia NALM-6 cells = experiment: Mitochondrial transmembrane potential assay (DiIC1(5) staining); format: cell-based, human; conditions: 2.5 nM, 5 nM or 10 nM, 72 hours
Experimental: FIG. 2 are graphs showing the effect of synthetic phorboxazole A and phorboxazole A derivatives on the mitochondrial transmembrane potentials of leukemia NALM-6 cells.
Cells were incubated with 2.5 nM, 5 nM or 10 nM of phorboxazole A, 33-O-methyl-phorboxazole A or 45,46-dehydrobromo-phorboxazole A for 72 hours, stained with DiICl (5) to assess the mitochondrial membrane potential (Δψm) and then analyzed with a cell sorter equipped with a HeNe laser.

[8] = tested on: U373 glioblastoma spheroids; experiment: Cell migration from glioblastoma spheroids; format: cell-based, human; conditions: U373 spheroids on fibronectin-coated coverslips; 48 hours; varied concentrations
Experimental: U373 glioblastoma spheroids of 200 to 400 micrometers in diameter were treated with synthetic Phorboxazole A, 33-O-Methyl-phorboxazole A, and 45,46-dehydrobromo-phorboxazole A in 0.1% DMSO at varied concentrations. Cells were incubated with the inhibitor or with control DMSO in the absence of inhibitor compound for two hours, and then transferred to fibronectin-coated coverslips. The spheroids were then incubated in DMEM containing […] at 37° C. for 48 hours.
In addition, multi-cellular U373 glioblastoma spheroids of 200-400 μm diameter were incubated with 500 nM, 250 nM, 125 nM, 62.5 nM and […] phorboxazoleA, 29-phorboxamide A, 18-methyl phorboxylate and 31-methyl phorboxylate in 0.1% DMSO or 0.1% DMSO alone for 2 hours and transferred to fibronectin-coated coverslips. The spheroids were then incubated in MEM containing respective compounds and cultured for 48 hours at 37° C. At the end of incubation, the spheroids were fixed and stained with Hema-3 solutions. The distance of migrated cells from spheroids was measured using a mircoscope and micrometer.

Row | SMILES | IC50 [1] | IC50 [2] | IC50 [3] | Mean Number Colonies/10^4 cells ([4]; 1 nM) | Mean Number Colonies/10^4 cells ([4]; 10 nM) | Mean Number Colonies/10^4 cells ([4]; 100 nM) | inhibition at 0.001 µM ([4]; 1 nM) | inhibition at 0.01 µM ([4]; 10 nM) | inhibition at 0.1 µM ([4]; 100 nM) | Mean Number Colonies/10^4 cells ([5]; 1 nM) | Mean Number Colonies/10^4 cells ([5]; 10 nM) | Mean Number Colonies/10^4 cells ([5]; 100 nM) | inhibition at 0.001 µM ([5]; 1 nM) | inhibition at 0.01 µM ([5]; 10 nM) | inhibition at 0.1 µM ([5]; 100 nM) | Mean Number Colonies/10^4 cells ([6]; 10 nM) | Mean Number Colonies/10^4 cells ([6]; 100 nM) | inhibition at 0.01 µM ([6]; 10 nM) | inhibition at 0.1 µM ([6]; 100 nM) | Apoptosis-inducing activity [7] | also measured
1 | C#CC[C@H](/C=C/C(C)=C/[C@@H](O)[C@H]1C[C@@H](OC)C[C@@](O)(Cc2nc(/C=C(\C)[C@@H]3O[C@@H]4C/C=C/c5nc(co5)[C@H]5C[C@H](O)C[C@@H](C[C@H]6CC(=C)C[C@H](C/C=C\C(=O)O[C@@H]([C@H]4C)[C@H]3C)O6)O5)co2)O1)OC [Compound 8, 45,46-Dehydrobromo-Phorboxazole A] | 4.8 nM | 12.6 nM | 27.4 nM | 2116 | 293 | 0 | 0% | 85.7% | > 99.9% | 1540 | 1062 | 0 | 0% | 30.3% | > 99.9% | 586 | 144 | 10.7% | 78.1% | apoptotic activity | Depolarized mitochondria (mitochondrial membrane potential) (leukemia NALM-6 cells): progressive increase in depolarized mitochondria; Inhibition of cell migration from the spheroid [8]: significantly inhibited cell migration
2 | C=C1C[C@@H]2C[C@@H]3C[C@@H](O)C[C@@H](O3)c3coc(n3)/C=C/C[C@H]3O[C@@H](/C(C)=C/c4coc(C[C@]5(OC)C[C@H](OC)C[C@H]([C@H](O)/C=C(C)/C=C/[C@@H](C/C=C/Br)OC)O5)n4)[C@H](C)[C@@H](OC(=O)/C=C\C[C@@H](C1)O2)[C@H]3C [Compound 9, 33-O-methyl-Phorboxazole A] | 5.2 nM | 11.3 nM | 29.2 nM | 1760 | 422 | 0 | 14% | 79.4% | > 99.9% | 1824 | 1430 | 0 | 0% | 6.2% | > 99.9% | 578 | 0 | 11.9% | > 99.8% | apoptotic activity | Depolarized mitochondria (mitochondrial membrane potential) (leukemia NALM-6 cells): progressive increase in depolarized mitochondria; Inhibition of cell migration from the spheroid [8]: significantly inhibited cell migration
